# From patent US12054509B2, “Antimicrobial compounds, compositions, and uses thereof” (Lakewood Amedex, Inc., priority 2017, dated 2024)
# How the values were obtained:
# [1] = test system: Escherichia coli (strain CFT073, TPPS 1041); test: Urinary tract infection model in BALB/c mice, initial efficacy (Example 10); type: in vivo; details: 50 mg/kg transurethral at 24 hr, 60 minutes post-treatment
# Excerpt: Female BALB/c mice (20-22 g) ordered from Envigo are acclimated to housing conditions and handled in accordance with Animal Use Protocol (AUP) number TP-08. Animals are fed irradiated Teklad Global 29 18 Rodent Diet and water ad libitum. Mice are housed 6/cage in static cages with irradiated ⅛″ Teklad corn cobbedding 7902 inside bioBubble® clean rooms that provide H.E.P.A filtered air into the bubble environment at 100 complete air changes per hour. The environment is controlled to a temperature range of 74°±4° F. and a humidity range of 30-70%. All procedures carried out in this experiment are conducted in compliance with the laws, regulations, and guidelines of the National Institutes of Health and with the approval of the TransPharm Preclinical Solutions Animal Care and Use Committee.
# A clinical isolate of Escherichia coli (strain CFT073, TPPS 1041) are procured from the University of Michigan.
# The organism is grown overnight at 37° C. in ambient atmosphere on trypticase soy agar plates supplemented with 5% sheep blood cells. The culture is aseptically swabbed and transferred to tubes of trypticase soy broth. The optical density is determined at 600 nm. The culture is diluted to provide an inoculum of approximately 7.5 log10 CFU per mouse in a volume of 30 μL. Instillation of the bacterial challenge constituted time 0 hour for the study. Inoculum counts are estimated before inoculation by optical density and confirmed after inoculation by dilution and back counts.
# One hour prior to bacterial challenge, water is removed from animal cages. […]
# The primary endpoint used to assess progress of the infection is mean bacterial burden per gram of urinary bladder tissue. […] Colony forming units (CFU) are enumerated and the total bacterial burden per gram of urinary bladder tissue homogenate is calculated.
# The geometric mean CFU, along with standard error of the mean (SEM), are calculated using Microsoft Excel and bar charts are prepared for the data using GraphPad Prism v. […]
# E. coli ATCC 25922 = test: Bacterial cytological profiling (Example 6), E. coli; type: cell-based;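 for cell wall deformations: tested at 1 0.5 and 0.25 times MIC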;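 for effect on cell envelope: tested at 1 0.5 and 0.25 times MIC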
# Procedure: (§1) This bacterial cytological profiling (BCP) study uses methods and materials described previously by Nonejuie, P., Burkart, M., Poglianoa, K., Pogiano, J. (2013). Bacterial cytological profiling rapidly identifies the cellular pathways targeted by antibacterial molecules. Proc. Natl. Acad. Sci. U.S.A. 110(40):16169-16174. doi: 10.1073/pnas.1311066110.
# (§2) Wild type strains of E. coli ATCC 25922 or P. aeruginosa K2732 are grown in rich media (unbuffered 2× Lysogeny broth [LB]) at 30 C to an OD600˜0.4. These cultures are then split and each sample treated with the appropriate concentration of Nu-8 in unbuffered or buffered LB (final mixture OD600˜0.1). Cells exposed without Nu-8 are buffered to pH 4 with phosphoric acid.
# (§3) The BCP is performed in LB media buffered to pH 4. The minimum inhibitory concentration (MIC) is measured for Nu-3, Nu-4, Nu-5, and Nu-8 against each bacterial strain. As one of ordinary skill in the art understands, minimum inhibitory concentrations are the lowest concentration of an antimicrobial that will inhibit the visible growth of a microorganism after overnight incubation. […] Cellular viability is assayed at three time points (5 minutes and 4 and 24 h following the onset of treatment).
# (§4) For imaging E. coli, treated cells are stained with 1 μg/Ml FM4-64, 2 μg/mL DAPI, and 0.5 μM SYTOXGreen (Molecular Probes/Invitrogen). P. aeruginosa samples are stained 0.5 μM SYTOX Green, 28 μg/mL DAPI, and 4.5 μg/mL FM 4-64. Cells are transferred to an agarose pad (20% LB, 1% agarose) for imaging as described in Pogliano, J., Osborne, N., Sharp, M. D., Abanes-De Mello, A., Perez, A., Sun, Y.-L. and Pogliano, K. (1999), A vital stain for studying membrane dynamics in bacteria: a novel mechanism controlling septation during Bacillus subtilis sporulation. Molecular Microbiology, 31: 1149-1159. doi:10.1046/j.1365-2958.1999.01255.x.
# P. aeruginosa K2732 = test: Bacterial cytological profiling (Example 6), P. aeruginosa; type: cell-based; details: BCP;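 note: tested at 1 0.5 and 0.25 times MIC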
# Procedure: as §1, §2, §3, §4
# [2] = test system: wild type E. coli (ATCC 25922); test: Bacterial cytological profiling at pH 4, 5.5, 7 (Example 8), E. coli; type: cell-based
# Procedure: (§5) This bacterial cytological profiling (BCP) investigation uses methods and materials described previously by Nonejuie, P., Burkart, M., Poglianoa, K., Pogiano, J. (2013). Bacterial cytological profiling rapidly identifies the cellular pathways targeted by antibacterial molecules. Proc. Natl. Acad. Sci. U.S.A. 110(40):16169-16174. doi: 10.1073/pnas.1311066110.
# (§6) For viable cell counts, cells are grown to OD600≈0.4 and diluted 1:1 into buffered or unbuffered media containing various compound concentrations. Samples are then collected and serially diluted (1:10) on a 96 well plate. Five microliters from each well are spotted on LB plates, incubated at 30° C., and viable cells are counted the next day.
# (§7) Samples are collected at 10, 30, 120, and 240 min of exposure for viable cell count and imaging. For imaging, E. coli and S. aureus 200 μL of treated cells per time point are stained with 0.8 μg/mL FM4-64, 1.5 μg/mL DAPI, and 0.4 μM SYTOXGreen (Molecular Probes/Invitrogen). P. aeruginosa samples are stained 0.4 μM SYTOX Green, 28 μg/mL DAN, and 1 μg/mL FM 4-64. Cells are transferred to an agarose pad (20% LB, 1% agarose) for imaging.
# (§8) For Nu-3 and Nu-8 stocks (at pH 4, 5.5 and 7), stock concentration is 500 mg/mL. For pH 4, the stocks are prepared by dissolving Nu-3 in 25 mM citrate buffer and Nu-8 in 350 mM citric acid. For pH 5.5, the stocks are prepared by dissolving Nu-3 in 25 mM citric-phosphate and Nu-8 in 25 mM critic. For pH 7, the stocks are prepared by dissolving Nu-3 and Nu-8 in 25 mM Sorensen phosphate buffer. 2×LB (lysogeny broth) solutions are prepared with 50 mM citrate buffer for pH 4, 50 mM citrate-phosphate buffer for pH 5.5, and 50 mM Sorensen phosphate buffer for pH 7.
# [3] = test system: wild type P. aeruginosa (PAO1; K2732); test: Bacterial cytological profiling at pH 4, 5.5, 7 (Example 8), P. aeruginosa; type: cell-based; details: pH 5.5 and 7; 112.5 mg/mL
# Procedure: as §5, §6, §7, §8
# [4] = test system: methicillin susceptible S. aureus (ATCC 29213); test: Bacterial cytological profiling at pH 4, 5.5, 7 (Example 8), S. aureus; type: cell-based
# Procedure: as §5, §6, §7, §8
# Candida Albicans = test: MIC against a single isolate (Example 26); type: cell-based; details: single isolate, read-out: C. albicans MIC
# Procedure: (§9) Bacterial strains evaluated in this study include Escherichia coli, Klebsiella spp, Serratia marcescens, Proteus mirabilis/vulgaris, Citrobacter spp, Providencia spp, Morganella morganii, Pseudomonas aeruginosa, Staphylococcus aureus (MRSA only), and Enterococcus faecalis. Nu-8 test solutions are adjusted to pH 3.5 with citric acid, and MIC is evaluated per the CLSI methods in Mueller-Hinton broth supplemented accordingly to facilitate growth of specific strains.
# (§10) MIC was determined as per Example 9 using LAI-101, LAI-102, Nu-10, LAI-105, LAI-106, Nu-3, and Nu-8 against a single isolate of Escherichia coli. Pseudomonas aeruginosa, Staphylococcus aureus (MRSA only), and Candida Albicans. For all microbe species, the LAI-101, LAI-102, Nu-10, LAI-105, and LAI-106 all perform at least as well as, and in many experiments better than, Nu-8 and Nu-3, which are both already quite active compounds.
# Escherichia coli = test: MIC against a single isolate (Example 26); type: cell-based; details: single isolate, read-out: E. coli MIC
# Procedure: as §9, §10
# Pseudomonas aeruginosa = test: MIC against a single isolate (Example 26); type: cell-based; details: single isolate, read-out: P. aeruginosa MIC
# Procedure: as §9, §10
# [5] = test system: Staphylococcus aureus (MRSA only); test: MIC against a single isolate (Example 26); type: cell-based; details: single isolate, read-out: S. aureus MIC
# Procedure: as §9, §10
# E. coli (ATCC 25922) = test: Time kill assay in saline at pH 3.5 (Example 27); type: cell-based; details: for Log10 CFU/mL: pH 3.5
# Procedure: Log10 5 CFU of E. coli (ATCC 25922) were suspended in saline. Additionally, a sample of the saline only was prepared as a vehicle control (V.C.). Solutions of Nu-3, Nu-8, and Nu-10 at varying concentrations were adjusted to pH 3.5 with citric acid and added to the E. coli suspensions. At each time point (0, 1, 2.5, 5, 10, and 20 minutes), the treated bacterial suspensions were plated and incubated for 24 hrs, and each plate was read to determine the CFU count.
# Tables 12-14 provide the time kill assay data for Nu-3 (Table 12), Nu-8 (Table 13) and Nu-10 (Table 14) against E. coli.
molecule,measurement,setting,value
gentamicin [reference compound],average bladder CFU burden,[1],6.1 log10 CFU
"CCCCOP(=O)(O)OC[C@H]1O[C@@H](n2cc(C)c(=O)[nH]c2=O)C[C@@H]1OP(=O)(O)OCCCC [Nu-3, reference compound]",effect on cell envelope,E. coli ATCC 25922; BCP,affect the cell envelope
same,DNA condensation,"E. coli ATCC 25922; higher treatment concentrations, buffered pH 4",causes DNA condensation
same,cell wall deformations,E. coli ATCC 25922; unbuffered LB,cause cell wall deformations
same,effect on cell envelope,P. aeruginosa K2732,affect the cell envelope
same,cell viability (cell growth delay),"[2]; pH 4, 112.5 mg/mL, up to 240 min",10^7 CFR/mL
same,"effect on cell permeability, viability and growth",[2]; pH 5.5 and 7,ineffective
same,cell growth,[3],no effect on cell growth
same,increase/change in cell permeability,[3],< 6%
same,cell growth,"[4]; pH 4, 125 mg/mL",slight reduction in cell growth
same,cell permeability,"[4]; pH 4, 125 mg/mL",< 10%
same,cell permeability,"[4]; pH 4, 250 mg/mL",< 10%
same,cell growth,"[4]; pH 5.5 and 7, 125 mg/mL and 250 mg/mL, up to 24 h",slightly reduce cell growth
same,MIC,Candida Albicans,25 mg/mL
same,MIC,Escherichia coli,25 mg/mL
same,MIC,Pseudomonas aeruginosa,25 mg/mL
same,MIC,[5],> 50 mg/mL
same,Log10 CFU/mL,"E. coli (ATCC 25922); 2.5% solution, 0 min",5.20 Log10 CFU/mL
same,Log10 CFU/mL,"E. coli (ATCC 25922); 2.5% solution, 1 min",3.38 Log10 CFU/mL
same,Log10 CFU/mL,"E. coli (ATCC 25922); 2.5% solution, 2.5 min",2.55 Log10 CFU/mL
same,Log10 CFU/mL,"E. coli (ATCC 25922); 2.5% solution, 5 min",1.99 Log10 CFU/mL
same,Log10 CFU/mL,"E. coli (ATCC 25922); 2.5% solution, 10 min",0.00 Log10 CFU/mL
same,Log10 CFU/mL,"E. coli (ATCC 25922); 2.5% solution, 20 min",0.00 Log10 CFU/mL
same,Log10 CFU/mL,"E. coli (ATCC 25922); 5% solution, 0 min",5.20 Log10 CFU/mL
same,Log10 CFU/mL,"E. coli (ATCC 25922); 5% solution, 1 min",3.00 Log10 CFU/mL
same,Log10 CFU/mL,"E. coli (ATCC 25922); 5% solution, 2.5 min",2.10 Log10 CFU/mL
same,Log10 CFU/mL,"E. coli (ATCC 25922); 5% solution, 5 min",0.00 Log10 CFU/mL
same,Log10 CFU/mL,"E. coli (ATCC 25922); 5% solution, 10 min",0.00 Log10 CFU/mL
same,Log10 CFU/mL,"E. coli (ATCC 25922); 5% solution, 20 min",0.00 Log10 CFU/mL
same,Log10 CFU/mL,"E. coli (ATCC 25922); 10% solution, 0 min",5.20 Log10 CFU/mL
same,Log10 CFU/mL,"E. coli (ATCC 25922); 10% solution, 1 min",2.85 Log10 CFU/mL
same,Log10 CFU/mL,"E. coli (ATCC 25922); 10% solution, 2.5 min",0.00 Log10 CFU/mL
same,Log10 CFU/mL,"E. coli (ATCC 25922); 10% solution, 5 min",0.00 Log10 CFU/mL
same,Log10 CFU/mL,"E. coli (ATCC 25922); 10% solution, 10 min",0.00 Log10 CFU/mL
same,Log10 CFU/mL,"E. coli (ATCC 25922); 10% solution, 20 min",0.00 Log10 CFU/mL
same,time to complete kill of the bacteria,E. coli (ATCC 25922); concentration of 10%,≤ 2.5 min
